The results in this text go back to US8178501B2, “Antibiotic combinations for providing total solution to the treatment of infections” (priority 2004, dated 2012).

Experiment in all cases: Bacterial Susceptibility Test, zone size
Type in all cases: cell-based

One assay concerns E. coli. On the procedure:
(§1) The combination of amikacin and cefepime on different microorganisms was taken to analyze the efficiency of combination in comparison with the individual components of the drug. Different concentrations were selected mentioned to as highest, high, low and lowest in the data. Zone size was determined in mm.

The subject of the next assay is Enterococcus faecalis. On the procedure: as §1
For a further assay, the system named is Klebsiella pneumoniae. On the procedure:
as §1

A further assay has as its system Pseudomonas auriginosa. On the procedure: as §1
A further assay concerns Staphylococcus aureus. On the procedure:
as §1

The next assay concerns Streptococcus pneumoniae. On the procedure:
as §1

Counter-ions that a name gives are not always drawn.

Take `NCC[C@H](O)C(=O)N[C@@H]1C[C@H](N)[C@@H](O[C@H]2O[C@H](CN)[C@@H](O)[C@H](O)[C@H]2O)[C@H](O)[C@H]1O[C@H]1O[C@H](CO)[C@@H](O)[C@H](N)[C@H]1O` [Amikacin, D-Streptamine, O-3-amino-3-deoxy-α-d-glucopyranosyl)1→6)-O-[6-amino-6-deoxy-α-D-glucopyranosyl(1→4)]-N^1-(4-amino-2-hydroxy-1-oxobutyl)-2-deoxy-,(S)-,sulfate (1:2)(salt)]: the Zone in the assay on E. coli (concentration High) turned out to be 29.02 mm; in the assay on E. coli (concentration Highest), 30.90 mm; in the assay with E. coli (concentration Low), 22.06 mm; with E. coli (concentration Lowest), 15.02 mm; in the assay with Enterococcus faecalis (concentration High), 23.24 mm; with Enterococcus faecalis (concentration Highest), 27.29 mm. Besides, the Zone in the assay with Enterococcus faecalis (concentration Low) stood at 17.97 mm; with Enterococcus faecalis (concentration Lowest), 08.05 mm; with Klebsiella pneumoniae (concentration High), 31.25 mm; in the assay with Klebsiella pneumoniae (concentration Highest), 34.98 mm; with Klebsiella pneumoniae (concentration Low), 31.02 mm; in the assay with Klebsiella pneumoniae (concentration Lowest) it was 29.98 mm. For the same compound, the Zone in the assay with Pseudomonas auriginosa (concentration High) is on record as 21.81 mm; with Pseudomonas auriginosa (concentration Highest), 26.93 mm; in the assay on Pseudomonas auriginosa (concentration Low), 16.05 mm; in the assay on Pseudomonas auriginosa (concentration Lowest) it was 09.81 mm; in the assay on Staphylococcus aureus (concentration High) it was 24.42 mm; in the assay with Staphylococcus aureus (concentration Highest), 28.92 mm. The Zone was 18.79 mm in the assay with Staphylococcus aureus (concentration Low); 10.09 mm in the assay with Staphylococcus aureus (concentration Lowest); 24.28 mm in the assay on Streptococcus pneumoniae (concentration High); 26.58 mm in the assay with Streptococcus pneumoniae (concentration Highest); 18.34 mm in the assay on Streptococcus pneumoniae (concentration Low); 12.32 mm with Streptococcus pneumoniae (concentration Lowest).

As to `CO/N=C(\C(=O)N[C@@H]1C(=O)N2C(C(=O)O)=C(C[N+]3(C)CCCC3)CS[C@H]12)c1csc(N)n1.Cl.O.[Cl-]` [Cefepime, 1-[[(6R,7R)-7-[2-(2-amino-4-thiazolyl)-glyoxylamido]-2-carboxy-8-oxo-5-thia-1-azabicyclo[4.2.0]oct-2-en-3-yl]methyl]-1-methyl-pyrrolidinium chloride, 7^2-(Z)-(O-methyloxime), monohydrochloride, monohydrate], the Zone with E. coli (concentration High) is recorded as 30.16 mm; in the assay on E. coli (concentration Highest), 32.24 mm; in the assay with E. coli (concentration Low), 24.20 mm; in the assay with E. coli (concentration Lowest), 16.42 mm; in the assay on Enterococcus faecalis (concentration High), 25.52 mm; in the assay with Enterococcus faecalis (concentration Highest), 28.98 mm. The Zone is 19.92 mm in the assay with Enterococcus faecalis (concentration Low); 12.65 mm in the assay on Enterococcus faecalis (concentration Lowest); 32.35 mm with Klebsiella pneumoniae (concentration High); 36.02 mm with Klebsiella pneumoniae (concentration Highest); 31.96 mm with Klebsiella pneumoniae (concentration Low); 30.83 mm in the assay on Klebsiella pneumoniae (concentration Lowest). Besides, the Zone in the assay with Pseudomonas auriginosa (concentration High) is 27.56 mm; with Pseudomonas auriginosa (concentration Highest), 30.94 mm; in the assay with Pseudomonas auriginosa (concentration Low), 18.81 mm; in the assay with Pseudomonas auriginosa (concentration Lowest) it was 12.08 mm; in the assay with Staphylococcus aureus (concentration High) it was 28.44 mm; in the assay with Staphylococcus aureus (concentration Highest), 31.06 mm. In addition, the Zone turned out to be 21.18 mm with Staphylococcus aureus (concentration Low); 16.24 mm in the assay with Staphylococcus aureus (concentration Lowest); 28.10 mm with Streptococcus pneumoniae (concentration High); 30.32 mm in the assay with Streptococcus pneumoniae (concentration Highest); 23.02 mm in the assay with Streptococcus pneumoniae (concentration Low); 19.54 mm in the assay on Streptococcus pneumoniae (concentration Lowest).
